Each structure is given as a SMILES string.

The test system of the test is syngeneic TC-1 cell tumor. Description: Tumor growth response (partial responders), Cbl-b inhibitor plus cancer vaccine, Biological Example 11. Format: in vivo, C57BL/6 mice. The settings on record: significant decrease in tumor volume relative to control mice without Cbl-b inhibitor or vaccine; 10 mice per group. The protocol:
In brief, the combination therapy was tested in C57BL/6 mice bearing a syngeneic TC-1 cell tumor. TC-1 cells were derived from primary murine lung cells, which had been transfected with human papillomavirus strain 16 (HPV16) early proteins 6 and 7 (E6 and E7) and an activated human c-Ha-ras oncogene (Lin et al., Cancer Research, 56: 21-26, 1996). Either 2.5×10^4 (first study) or 5.0×10^4 (second study) TC-1 cells (obtained from Johns Hopkins University) were injected subcutaneously into the mid flank of each mouse. Tumors were allowed to grow to 50-100 mm^3 at which time the animals were randomized and treatment was initiated (Day 0). […]
Tumor size was recorded twice a week starting on Day 0 (Day 14 post TC-1 injection) and continued through duration of dosing until humane endpoints were reached between Day 33 and Day 42 (=between Day 47 and Day 56 post TC-1 injection). The level of response was evaluated by comparing tumor growth in the test mice versus the control mice (10 mice per group). In addition, the level of immune activation was assessed by collecting tumors for analysis of tumor infiltrating lymphocytes (TILs) on Day 10 (=Day 24 post TC-1 injection) in test and control mice (6 mice per group). […]

Turning to `Cc1cc(C(=O)Nc2cccc(C3(Cc4nncn4C)COC3)c2)nc(C2CC2)n1` [Compound 60], the partial responders is listed as 0/10.

Values taken from US11530229B2, “Cyano cyclobutyl compounds for CBL-B inhibition and uses thereof” (Nurix Therapeutics, Inc., priority 2019, dated 2022).
